# From the supplement of paper PMC11451515
# System: P12-Ichikawa
# Assay: cell viability relative to DMSO control; higher = less cytotoxic
# Conditions: 48 h
# Summary of the method: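 In 1536-well plates, 5 μl of leukemia cells were seeded per well: 500 cells/well for NOMO1 or SEM and 1000 cells/well for P12-Ichikawa. Each line had first been adapted for at least four passages in each medium. Library compounds in DMSO were pin-dosed at 11 threefold concentrations between 47 μM and 0.79 nM, and CellTiter-Glo One luminescence was read after 48 h at 37°C. Viability is a per-plate percentage relative to DMSO wells, with cell-free wells as background.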
# [1] = HPLM + 10% dialyzed FBS, 0.000781 µM
# [2] = HPLM + 10% dialyzed FBS, 0.00234 µM
# [3] = HPLM + 10% dialyzed FBS, 0.00702 µM
# [4] = HPLM + 10% dialyzed FBS, 0.0211 µM
# [5] = HPLM + 10% dialyzed FBS, 0.0632 µM
# [6] = HPLM + 10% dialyzed FBS, 0.19 µM
# [7] = HPLM + 10% dialyzed FBS, 0.569 µM
# [8] = HPLM + 10% dialyzed FBS, 1.71 µM
# [9] = HPLM + 10% dialyzed FBS, 5.12 µM
# [10] = HPLM + 10% dialyzed FBS, 15.4 µM
# [11] = HPLM + 10% dialyzed FBS, 46.1 µM
# [12] = RPMI 5 mM glucose + 10% FBS, 0.000781 µM
# [13] = RPMI 5 mM glucose + 10% FBS, 0.00234 µM
# [14] = RPMI 5 mM glucose + 10% FBS, 0.00702 µM
# [15] = RPMI 5 mM glucose + 10% FBS, 0.0211 µM
# [16] = RPMI 5 mM glucose + 10% FBS, 0.0632 µM
# [17] = RPMI 5 mM glucose + 10% FBS, 0.19 µM
# [18] = RPMI 5 mM glucose + 10% FBS, 0.569 µM
# [19] = RPMI 5 mM glucose + 10% FBS, 1.71 µM
# [20] = RPMI 5 mM glucose + 10% FBS, 5.12 µM
# [21] = RPMI 5 mM glucose + 10% FBS, 15.4 µM
# [22] = RPMI 5 mM glucose + 10% FBS, 46.1 µM
# [23] = RPMI 5 mM glucose + 10% dialyzed FBS, 0.000781 µM
# [24] = RPMI 5 mM glucose + 10% dialyzed FBS, 0.00234 µM
# [25] = RPMI 5 mM glucose + 10% dialyzed FBS, 0.00702 µM
# [26] = RPMI 5 mM glucose + 10% dialyzed FBS, 0.0211 µM
# [27] = RPMI 5 mM glucose + 10% dialyzed FBS, 0.0632 µM
# [28] = RPMI 5 mM glucose + 10% dialyzed FBS, 0.19 µM
# [29] = RPMI 5 mM glucose + 10% dialyzed FBS, 0.569 µM
# [30] = RPMI 5 mM glucose + 10% dialyzed FBS, 1.71 µM
# [31] = RPMI 5 mM glucose + 10% dialyzed FBS, 5.12 µM
# [32] = RPMI 5 mM glucose + 10% dialyzed FBS, 15.4 µM
# [33] = RPMI 5 mM glucose + 10% dialyzed FBS, 46.1 µM
Structure (SMILES),cell viability [1],cell viability [2],cell viability [3],cell viability [4],cell viability [5],cell viability [6],cell viability [7],cell viability [8],cell viability [9],cell viability [10],cell viability [11],cell viability [12],cell viability [13],cell viability [14],cell viability [15],cell viability [16],cell viability [17],cell viability [18],cell viability [19],cell viability [20],cell viability [21],cell viability [22],cell viability [23],cell viability [24],cell viability [25],cell viability [26],cell viability [27],cell viability [28],cell viability [29],cell viability [30],cell viability [31],cell viability [32],cell viability [33]
COc1cccc2c1C(=O)c1c(O)c3c(c(O)c1C2=O)C[C@@](O)(C(=O)CO)C[C@@H]3O[C@H]1C[C@H](N)[C@H](O[C@H]2CCCCO2)[C@H](C)O1,122%,127%,123%,123%,115%,125%,121%,92.3%,9.81%,113%,99%,122%,122%,120%,127%,117%,122%,106%,70.2%,6.23%,108%,94.6%,125%,121%,102%,128%,117%,114%,97.5%,71.5%,7.42%,93%,84.7%
C[C@@H]1CN(Cc2ccc(F)cc2)[C@@H](C)CN1C(=O)c1cc2c(C(=O)C(=O)N(C)C)cn(C)c2cc1Cl,111%,118%,118%,128%,115%,123%,125%,125%,125%,125%,108%,110%,114%,111%,126%,122%,124%,132%,113%,124%,117%,107%,119%,132%,117%,124%,122%,130%,124%,127%,123%,118%,117%
C[C@H]1C[C@H]2[C@@H]3CC[C@](O)(C(=O)CO)[C@@]3(C)C[C@H](O)[C@@H]2[C@@]\4(C)/C=C\C(=O)\C=C14,96.9%,97.4%,96.9%,91.7%,98.7%,88.1%,64.1%,64.9%,57.3%,57.6%,56.9%,91.2%,96.3%,95.4%,96.8%,78.5%,80%,55.2%,50.4%,47.6%,48.2%,45%,85.3%,88.2%,84.1%,93.5%,88.2%,74.2%,53.3%,40.6%,40.6%,38.6%,34.9%
C[C@@H](NCCCc1cccc(C(F)(F)F)c1)c1cccc2ccccc12,120%,123%,117%,125%,109%,118%,114%,118%,113%,100%,115%,,,,,,,,,,,,,,,,,,,,,,
CC[S+](=O)([O-])Nc1ccc2c(c1)/C(=C(/Nc1ccc(CN3CCCCC3)cc1)c1ccccc1)C(=O)N2,106%,114%,115%,109%,111%,12.9%,11.6%,18.7%,27.1%,54.3%,32.2%,127%,116%,120%,119%,114%,14.3%,17.4%,30.7%,35.3%,51.4%,21.4%,123%,117%,121%,118%,121%,22.6%,25.8%,47.3%,52%,59.8%,18.8%
CC\12CCC(=O)\C=C1CCC3C2CCC4(C)C3CCC4(O)C#C (configuration not stated),102%,101%,99.2%,93.9%,97.9%,93.4%,92%,92.3%,94.2%,80.6%,92.3%,99.3%,102%,97.7%,100%,96.8%,97.1%,93.1%,96.6%,85.7%,81.8%,90.3%,83.5%,85.6%,88.9%,91.1%,95.7%,93.6%,91.1%,88.6%,85.4%,84.2%,83%
C/C(=N\NC(=S)N1CCC1)c1ccccn1,105%,92.4%,47.6%,29.3%,12%,8.28%,5.61%,10.9%,8.16%,1.94%,20.3%,110%,96.3%,57.6%,22.7%,10.4%,8.95%,8.33%,6.64%,5.66%,-0.453%,9.21%,117%,107%,64.9%,29.8%,12.9%,9.03%,6.61%,6.04%,3.26%,-0.0472%,8.99%
CC(C)=CCC/C(C)=C/CC/C(C)=C/CC/C(C)=C/CC/C(C)=C/CC/C(C)=C/CC/C(C)=C/CC/C(C)=C/CC/C(C)=C/CO,107%,109%,108%,112%,116%,109%,109%,108%,104%,93.4%,106%,105%,103%,115%,103%,108%,98.7%,105%,97.1%,91.3%,87.1%,96.1%,98.3%,100%,92.7%,99.6%,103%,102%,106%,97.3%,87.9%,95.9%,90.3%
